In US9505745B2, “Enhancer of zeste homolog 2 inhibitors” (GlaxoSmithKline Intellectual Property (No.2) Limited, priority 2013, dated 2016):
Structures can show the parent of a compound that is named as a salt.

Target: EZH2 within the PRC2 complex (Homo sapiens (Human), UniProt Q15910)
Assay: EZH2 methyltransferase SPA, biotinylated histone H3K27 peptide substrate (Assay Protocol 2)
Assay type: biochemical
Details: 3H-SAM, ≦10 nM approaches limit of detection
Procedure: Compounds contained herein were evaluated for their ability to inhibit the methyltransferase activity of EZH2 within the PRC2 complex. Human PRC2 complex was prepared by co-expressing each of the 5 member proteins (FLAG-EZH2, EED, SUZ12, RbAp48, AEBP2) in Sf9 cells followed by co-purification. Enzyme activity was measured in a scintillation proximity assay (SPA) where a tritiated methyl group is transferred from 3H-SAM to a lysine residue on a biotinylated, unmethylated peptide substrate derived from histone H3. The peptides were captured on streptavidin-coated SPA beads and the resulting signal was read on a ViewLux plate reader.
Part A. Compound Preparation
• 4. Prepare 10 mM stock of compounds from solid in 100% DMSO. • 5. Set up an 11-point serial dilution (1:4 dilution, top concentration 10 mM) in 100% DMSO for each test compound in a 384 well plate leaving columns 6 and 18 for DMSO controls. • 6. Dispense 10 nL of compound from the dilution plate into reaction plates (Corning, 384-well polystyrene NBS, Cat#3673). Part B. Reagent Preparation Prepare the following solutions: • 7. 1× Base Buffer, 50 mM Tris-HCl, pH 8, 2 mM MgCl2: Per 1 L of base buffer, combine 1 M Tris-HCl, pH 8 (50 mL), 1 M MgCl2 (2 mL), and distilled water (948 mL). • 8. 1× Assay Buffer: Per 10 mL of 1× Assay Buffer, combine 1× Base Buffer (9.96 mL), 1 M DTT (40 uL), and 10% Tween-20 (1 uL) to provide a final concentration of 50 mM Tris-HCl, pH 8, 2 mM MgCl2, 4 mM DTT, 0.001% Tween-20. • 9. 2× Enzyme Solution: Per 10 mL of 2× Enzyme Solution, combine 1× Assay Buffer (9.99 mL) and 3.24 uM EZH2 5 member complex (6.17 uL) to provide a final enzyme concentration of 1 nM. • 10. SPA Bead Solution: Per 1 mL of SPA Bead Solution, combine Streptavidin coated SPA beads (PerkinElmer, Cat#RPNQ0261, 40 mg) and 1× Assay Buffer (1 mL) to provide a working concentration of 40 mg/mL. • 11. 2× Substrate Solution: Per 10 mL of 2× Substrate Solution, combine 40 mg/mL SPA Bead Solution (375 uL), 1 mM biotinylated histone H3K27 peptide (200 uL), 12.5 uM 3H-SAM (240 uL; 1 mCi/mL), 1 mM cold SAM (57 uL), and 1× Assay Buffer (9.13 mL) to provide a final concentration of 0.75 mg/mL SPA Bead Solution, 10 uM biotinylated histone H3K27 peptide, 0.15 uM 3H-SAM (˜12 uCi/mL 3H-SAM), and 2.85 uM cold SAM. • 12. 2.67× Quench Solution: Per 10 mL of 2.67× Quench Solution, combine 1× Assay Buffer (9.73 mL) and 10 mM cold SAM (267 uL) to provide a final concentration of 100 uM cold SAM. Part C. Assay Reaction in 384-well Grenier Bio-One Plates Compound Addition • 3. Stamp 10 nL/well of 1000× Compound to test wells (as noted above). • 4. Stamp 10 nL/well of 100% DMSO to columns 6 & 18 (high and low controls, respectively). Assay • 10. Dispense 5 uL/well of 1× Assay Buffer to column 18 (low control reactions). • 11. Dispense 5 uL/well of 2× Substrate Solution to columns 1-24 (note: substrate solution should be mixed to ensure homogeneous bead suspension before dispensing into matrix reservoir). • 12. Dispense 5 uL/well of 2× Enzyme Solution to columns 1-17, 19-24. • 13. Incubate the reaction for 60 min at room temperature. Quench • 5. Dispense 6 uL/well of the 2.67× Quench Solution to columns 1-24. • 6. Seal assay plates and spin for ˜1 min at 500 rpm. • 7. Dark adapt plates in the ViewLux instrument for 15-60 min. Read plates • 2. Read the assay plates on the Viewlux Plate Reader utilizing the 613 nm emission filter or clear filter (300 s exposure). Reagent addition can be done manually or with automated liquid handler. Results
Percent inhibition was calculated relative to the DMSO control for each compound concentration and the resulting values were fit using standard IC50 fitting parameters within the ABASE data fitting software package.

EZH2 within the PRC2 complex, sequence (Q15910 whole entry): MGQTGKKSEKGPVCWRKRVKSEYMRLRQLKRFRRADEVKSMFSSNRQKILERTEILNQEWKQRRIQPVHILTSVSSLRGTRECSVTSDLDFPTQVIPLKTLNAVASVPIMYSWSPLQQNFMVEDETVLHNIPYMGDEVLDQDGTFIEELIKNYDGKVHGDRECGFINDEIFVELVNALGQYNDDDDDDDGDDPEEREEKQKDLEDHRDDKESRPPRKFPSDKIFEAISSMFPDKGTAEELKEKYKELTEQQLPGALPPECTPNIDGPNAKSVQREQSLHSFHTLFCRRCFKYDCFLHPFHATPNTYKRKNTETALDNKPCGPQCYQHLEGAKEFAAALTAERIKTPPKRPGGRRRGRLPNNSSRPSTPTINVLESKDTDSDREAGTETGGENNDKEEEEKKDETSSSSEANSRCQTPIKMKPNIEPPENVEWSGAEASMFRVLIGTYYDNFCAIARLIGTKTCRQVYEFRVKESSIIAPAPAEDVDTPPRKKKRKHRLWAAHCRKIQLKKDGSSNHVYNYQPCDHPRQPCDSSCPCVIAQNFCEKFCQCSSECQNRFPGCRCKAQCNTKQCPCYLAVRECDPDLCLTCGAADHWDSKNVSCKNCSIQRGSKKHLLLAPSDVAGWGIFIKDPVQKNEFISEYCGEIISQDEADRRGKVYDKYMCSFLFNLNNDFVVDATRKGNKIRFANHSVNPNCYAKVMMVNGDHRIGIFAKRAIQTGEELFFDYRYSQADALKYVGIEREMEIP
EZH2 within the PRC2 complex, sequence (O75530 whole entry partner): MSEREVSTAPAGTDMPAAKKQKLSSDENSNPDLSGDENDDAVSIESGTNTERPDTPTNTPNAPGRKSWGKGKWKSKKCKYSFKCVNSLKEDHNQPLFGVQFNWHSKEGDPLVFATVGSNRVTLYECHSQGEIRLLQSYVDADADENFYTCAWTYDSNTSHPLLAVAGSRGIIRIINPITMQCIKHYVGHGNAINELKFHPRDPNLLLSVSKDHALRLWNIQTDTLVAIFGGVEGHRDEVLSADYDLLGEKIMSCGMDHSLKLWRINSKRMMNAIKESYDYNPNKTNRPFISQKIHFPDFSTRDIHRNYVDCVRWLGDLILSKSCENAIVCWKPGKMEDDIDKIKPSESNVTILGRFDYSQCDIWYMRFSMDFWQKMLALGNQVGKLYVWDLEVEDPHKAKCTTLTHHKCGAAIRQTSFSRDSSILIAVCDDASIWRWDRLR
EZH2 within the PRC2 complex, sequence (Q15022 whole entry partner): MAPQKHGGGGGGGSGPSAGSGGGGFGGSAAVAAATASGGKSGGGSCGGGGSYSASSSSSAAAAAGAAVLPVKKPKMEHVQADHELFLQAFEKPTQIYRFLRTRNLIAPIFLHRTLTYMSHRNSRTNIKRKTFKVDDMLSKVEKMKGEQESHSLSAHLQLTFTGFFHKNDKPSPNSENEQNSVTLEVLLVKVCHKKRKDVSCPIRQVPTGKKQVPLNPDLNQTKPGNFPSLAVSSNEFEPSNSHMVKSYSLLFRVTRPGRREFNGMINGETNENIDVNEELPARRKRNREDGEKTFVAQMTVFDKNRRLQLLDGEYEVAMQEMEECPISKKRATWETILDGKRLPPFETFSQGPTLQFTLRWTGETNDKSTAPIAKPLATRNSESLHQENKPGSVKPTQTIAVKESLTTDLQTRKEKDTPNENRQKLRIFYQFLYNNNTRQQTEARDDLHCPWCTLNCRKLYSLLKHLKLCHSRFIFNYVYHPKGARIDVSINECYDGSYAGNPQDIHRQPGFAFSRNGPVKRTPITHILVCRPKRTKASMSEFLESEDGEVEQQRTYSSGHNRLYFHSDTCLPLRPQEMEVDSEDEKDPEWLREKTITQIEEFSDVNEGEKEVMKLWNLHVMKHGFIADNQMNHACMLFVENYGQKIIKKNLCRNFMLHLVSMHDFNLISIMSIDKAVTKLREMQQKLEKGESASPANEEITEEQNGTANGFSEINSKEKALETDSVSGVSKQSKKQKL
EZH2 within the PRC2 complex, sequence (Q09028 whole entry partner): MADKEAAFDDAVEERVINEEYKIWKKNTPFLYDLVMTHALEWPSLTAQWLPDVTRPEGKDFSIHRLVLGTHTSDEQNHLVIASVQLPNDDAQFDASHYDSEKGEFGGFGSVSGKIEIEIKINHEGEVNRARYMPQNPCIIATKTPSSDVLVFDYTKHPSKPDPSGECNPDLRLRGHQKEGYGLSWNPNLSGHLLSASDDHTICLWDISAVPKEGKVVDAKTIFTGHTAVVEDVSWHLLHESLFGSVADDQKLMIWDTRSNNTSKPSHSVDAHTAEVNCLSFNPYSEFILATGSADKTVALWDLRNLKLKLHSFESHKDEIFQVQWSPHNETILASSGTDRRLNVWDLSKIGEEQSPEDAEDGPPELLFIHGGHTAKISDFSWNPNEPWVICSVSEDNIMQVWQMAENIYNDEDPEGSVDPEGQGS
EZH2 within the PRC2 complex, sequence (Q6ZN18 whole entry partner): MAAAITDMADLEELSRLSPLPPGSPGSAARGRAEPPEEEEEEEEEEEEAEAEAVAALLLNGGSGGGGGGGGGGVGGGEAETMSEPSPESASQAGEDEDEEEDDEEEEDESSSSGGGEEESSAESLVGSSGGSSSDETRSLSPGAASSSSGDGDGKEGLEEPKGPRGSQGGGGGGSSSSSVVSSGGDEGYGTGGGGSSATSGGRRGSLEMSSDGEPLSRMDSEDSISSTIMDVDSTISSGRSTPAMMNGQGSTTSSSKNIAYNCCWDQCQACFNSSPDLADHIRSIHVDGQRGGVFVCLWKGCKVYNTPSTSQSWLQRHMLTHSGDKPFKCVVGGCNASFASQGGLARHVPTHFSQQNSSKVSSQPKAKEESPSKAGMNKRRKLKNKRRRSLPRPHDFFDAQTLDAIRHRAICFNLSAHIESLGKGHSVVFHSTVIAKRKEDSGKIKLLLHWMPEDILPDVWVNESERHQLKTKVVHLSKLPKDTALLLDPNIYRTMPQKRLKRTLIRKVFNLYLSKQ

Compound | IC50
CCOC(=O)N(CC)c1scc(C(=O)NCc2c(C)cc(C)[nH]c2=O)c1C [Example 65, Ethyl (4-(((4,6-dimethyl-2-oxo-1,2-dihydropyridin-3-yl)methyl)carbamoyl)-3-methylthiophen-2-yl)(ethyl)carbamate] | 200 nM
CCN(c1scc(C(=O)NCc2c(C)cc(C)[nH]c2=O)c1C)C1CCN(C(C)C)CC1 [Example 66, N-((4,6-dimethyl-2-oxo-1,2-dihydropyridin-3-yl)methyl)-5-(ethyl(1-isopropylpiperidin-4-yl)amino)-4-methylthiophene-3-carboxamide] | 63 nM
CCN(c1scc(C(=O)NCc2c(C)cc(C)[nH]c2=O)c1C)C1CCNCC1F (centres unmarked) [Example 67, N-((4,6-dimethyl-2-oxo-1,2-dihydropyridin-3-yl)methyl)-5-(ethyl(3-fluoropiperidin-4-yl)amino)-4-methylthiophene-3-carboxamide] | 20 nM
Cc1cc(C)c(CNC(=O)c2csc(N3CCCCC3C3CCNCC3)c2C)c(=O)[nH]1 (centres unmarked) [Example 69, 5-([2,4′-Bipiperidin]-1-yl)-N-((4,6-dimethyl-2-oxo-1,2-dihydropyridin-3-yl)methyl)-4-methylthiophene-3-carboxamide hydrochloride] | 501 nM
C/C=C(/CCN1CCOCC1)c1scc(C(=O)NCc2c(C)cc(C)[nH]c2=O)c1C [Example 71, (Z)—N-((4,6-Dimethyl-2-oxo-1,2-dihydropyridin-3-yl)methyl)-4-methyl-5-(5-morpholinopent-2-en-3-yl)thiophene-3-carboxamide] | 1000 nM
C/C=C(/CCCN1CCN(C)CC1)c1scc(C(=O)NCc2c(C)cc(C)[nH]c2=O)c1C [Example 72, (Z)—N-((4,6-Dimethyl-2-oxo-1,2-dihydropyridin-3-yl)methyl)-4-methyl-5-(6-(4-methylpiperazin-1-yl)hex-2-en-3-yl)thiophene-3-carboxamide] | 251 nM
CCC(CCCN1CCN(C)CC1)c1scc(C(=O)NCc2c(C)cc(C)[nH]c2=O)c1C (centres unmarked) [Example 73, N-((4,6-Dimethyl-2-oxo-1,2-dihydropyridin-3-yl)methyl)-4-methyl-5-(6-(4-methylpiperazin-1-yl)hexan-3-yl)thiophene-3-carboxamide] | 126 nM
C/C=C(/CCCN1CCC(N(C)C)CC1)c1scc(C(=O)NCc2c(C)cc(C)[nH]c2=O)c1C [Example 74, (Z)—N-((4,6-Dimethyl-2-oxo-1,2-dihydropyridin-3-yl)methyl)-5-(6-(4-(dimethylamino)piperidin-1-yl)hex-2-en-3-yl)-4-methylthiophene-3-carboxamide formate] | 200 nM

Further lines, results first:

IC50 | Compound
79 nM | Cc1cc(C)c(CNC(=O)c2csc(N3CCCC3C3CCNCC3)c2C)c(=O)[nH]1 (centres unmarked) [Example 68, N-((4,6-dimethyl-2-oxo-1,2-dihydropyridin-3-yl)methyl)-4-methyl-5-(2-(piperidin-4-yl)pyrrolidin-1-yl)thiophene-3-carboxamide hydrochloride]
100 nM | Cc1cc(C)c(CNC(=O)c2csc(-c3cccc4c3CCNC4)c2C)c(=O)[nH]1 [Example 70, N-((4,6-Dimethyl-2-oxo-1,2-dihydropyridin-3-yl)methyl)-4-methyl-5-(1,2,3,4-tetrahydroisoquinolin-5-yl)thiophene-3-carboxamide hydrochloride]
25 nM | CCN(c1sc(-c2ccoc2)c(C(=O)NCc2c(C)cc(C)[nH]c2=O)c1C)C1CCOCC1 [Example 75, N-((4,6-dimethyl-2-oxo-1,2-dihydropyridin-3-yl)methyl)-5-(ethyl(tetrahydro-2H-pyran-4-yl)amino)-2-(furan-3-yl)-4-methylthiophene-3-carboxamide]
32 nM | CCN(c1sc(-c2ccco2)c(C(=O)NCc2c(C)cc(C)[nH]c2=O)c1C)C1CCOCC1 [Example 76, N-((4,6-dimethyl-2-oxo-1,2-dihydropyridin-3-yl)methyl)-5-(ethyl(tetrahydro-2H-pyran-4-yl)amino)-2-(furan-2-yl)-4-methylthiophene-3-carboxamide]
32 nM | CCN(c1sc(-c2ccoc2)c(C(=O)NCc2c(C)cc(C)[nH]c2=O)c1C)[C@H]1CC[C@H](N(C)C)CC1 [Example 77, N-((4,6-dimethyl-2-oxo-1,2-dihydropyridin-3-yl)methyl)-5-(((trans)-4-(dimethylamino)cyclohexyl)(ethyl)amino)-2-(furan-3-yl)-4-methylthiophene-3-carboxamide]
100 nM | CCN(c1sc(-c2cnn(C)c2)c(C(=O)NCc2c(C)cc(C)[nH]c2=O)c1C)C1CCOCC1 [Example 78, N-((4,6-dimethyl-2-oxo-1,2-dihydropyridin-3-yl)methyl)-5-(ethyl(tetrahydro-2H-pyran-4-yl)amino)-4-methyl-2-(1-methyl-1H-pyrazol-4-yl)thiophene-3-carboxamide]
